Reference: publication PMC7702303, “Biochemical and transcript level differences between the three human phosphofructokinases show optimisation of each isoform for specific metabolic niches” (Biochemical Journal, 2020)
Where “and” joins values, the source holds several entries; their conditions need not be identical. Identical values can stand only once. Like-named read-outs stand apart in the source and are kept apart here. Each block holds one compound with its values, some of them ahead of it.

Assays:
recombinant human PFK-L = target: T1, recombinant human PFK-L (Homo sapiens, UniProt P17858); test: ALDO-TIM-G3PDH enzyme-linked kinetic assay, PFK-L; assay type: biochemical; conditions: for K0.5ATP + modulator / VmaxATP + modulator: F6P 4mM
T1 construct: made in house; host or cells: PFK-deficient Saccharomyces cerevisiae
T1 sequence (P17858 1-780): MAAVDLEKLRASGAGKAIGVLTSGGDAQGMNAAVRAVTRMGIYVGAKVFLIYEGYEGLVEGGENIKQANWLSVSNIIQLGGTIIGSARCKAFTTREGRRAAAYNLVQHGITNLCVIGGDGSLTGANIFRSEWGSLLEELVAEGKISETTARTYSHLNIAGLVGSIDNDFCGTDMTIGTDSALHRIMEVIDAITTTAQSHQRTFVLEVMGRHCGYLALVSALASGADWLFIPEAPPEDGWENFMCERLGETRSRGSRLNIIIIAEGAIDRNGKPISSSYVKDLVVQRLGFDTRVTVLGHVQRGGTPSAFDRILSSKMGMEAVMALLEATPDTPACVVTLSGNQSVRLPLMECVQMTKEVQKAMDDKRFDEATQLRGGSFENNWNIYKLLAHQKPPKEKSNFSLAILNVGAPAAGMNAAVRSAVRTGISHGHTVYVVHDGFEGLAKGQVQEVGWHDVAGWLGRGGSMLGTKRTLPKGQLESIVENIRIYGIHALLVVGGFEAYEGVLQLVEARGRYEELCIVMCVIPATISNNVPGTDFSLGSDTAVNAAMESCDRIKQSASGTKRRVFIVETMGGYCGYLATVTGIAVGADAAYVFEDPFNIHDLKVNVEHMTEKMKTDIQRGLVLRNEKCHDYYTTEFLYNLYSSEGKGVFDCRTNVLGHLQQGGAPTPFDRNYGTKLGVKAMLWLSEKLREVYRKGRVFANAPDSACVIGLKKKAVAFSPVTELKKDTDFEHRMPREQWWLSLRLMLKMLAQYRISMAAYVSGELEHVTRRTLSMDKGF
Procedure: Recombinant human PFKs were expressed in PFK-deficient Saccharomyces cerevisiae and purified using the methods described previously, adapting earlier materials and protocols. Production of PFK intended for use in ATP titration experiments used 1 mM F6P as a tetramer stabilising agent in protein purification and storage buffers. Production of PFK intended for use in F6P titration experiments used 1 mM ATP as a tetramer stabilising agent in protein purification and storage buffers. Experimental details on the purification and characterisation procedures including figures showing SDS–PAGE gels of the highly pure PFKs used in the kinetic experiments described in this work have been recently published.
Assay buffer consisted of 50 mM TEA, 100 mM KCl, 10 mM MgCl2, 1 mM Tris(2-carboxyethyl)phosphine hydrochloride (TCEP), 10% glycerol, pH 7.4. Assay mix consisted of 5 units/ml glycerol-3-phosphate dehydrogenase (G3PDH, Sigma–Aldrich G6880), 2.5 units/ml aldolase (Sigma–Aldrich A2714), 25 units/ml triosephosphate isomerase (TIM, Sigma–Aldrich T6258), and 1.25 mM NADH. ATP and F6P were obtained from Sigma–Aldrich (A2383 and F3627, respectively). For ATP titrations, 38 µl of buffer or ligand were added to a clear non-binding 96-well plate. 40 µl of assay mix containing 10 mM F6P (final concentration 4 mM) was added and the plate was incubated at 25°C for 5 min. An amount of 2 µl of PFK isoforms were added to each well from stock concentrations of 150 µg/ml and the reaction was immediately started with 20 µl of ATP at varying concentrations. For F6P titrations, 30 µl of buffer or ligand was added to a clear non-binding 96-well plate. An amount of 40 µl of assay mix containing 1.25 mM ATP (final concentration 0.5 mM) was added and the plate was incubated at 25°C for 5 min. An amount of 5 µl of PFK isoforms were added to each well from stock concentrations of 200 µg/ml and the reaction was immediately started with 20 µl F6P at varying concentrations. All ligands and substrates (including ATP) were used at pH 7.4. All metabolites were obtained from Sigma–Aldrich unless otherwise stated. […] A SpectraMax M5 Multi-Mode Microplate Reader was used to measure A340nm at 13 s intervals for 10 min. All experiments were performed in triplicate unless otherwise stated.
Time-dependent absorbance change was converted into rate of NADH oxidation (µM s^−1) or specific activity (µmol min^−1 mg protein^−1) using the Beer-Lambert law (molar extinction coefficient of NADH 6.22 mM^−1 cm^−1). The initial rate of reaction was used to avoid accumulation of ADP, which activates PFK, interfering with the determination of kinetic properties. Non-linear regression analysis was performed on substrate titration data using GraphPad Prism 7, with curves fitted using allosteric sigmoidal models, enabling determination of steady-state kinetic values.

PFKM = conditions: cited from earlier work; for KmF6P: PFK-M; for IC50 or AC50 (activator): PFKM
PFK-M (rat heart) = tested on: PFK-M (rat heart); design: method as in Moreno-Sanchez et al(10) 2012; conditions: tissue supernatant, ATP 550-700M, ref Moreno-Sanchez et al(10) 2012; cited from earlier work
PFK-P (HeLa cell) = tested on: PFK-P (HeLa cell); design: method as in Moreno-Sanchez et al(10) 2012; conditions: tissue supernatant, ATP 550-700M, ref Moreno-Sanchez et al(10) 2012; cited from earlier work
PFKL = conditions: cited from earlier work
PFKP = conditions: cited from earlier work
[1] = PFK-L, modulator 10 µM, ATP 0.5mM, N=3, mean (SD)
[2] = PFK-L, modulator 10 µM, N=3, mean (SD)
[3] = PFK-L, modulator 1100 µM, ATP 0.5mM, N=3, mean (SD)
[4] = PFK-L, modulator 1100 µM, N=3, mean (SD)
[5] = PFK-L, GTP titration, F6P 4 mM, n = 3, mean (SD)

K0.5^F6P (recombinant human PFK-L; PFK-L, F6P titration, ATP 0.5 mM, n = 6, mean (SD)): 1360 µM and 1360 (40) µM | K0.5F6P (recombinant human PFK-L; PFK-L, control without modulator, run alongside modulator experiments, ATP 0.5mM, N=3, mean (SD)): 1432 (34) M and 1282 (53) M
SMILES: O=C(CO)[C@@H](O)[C@H](O)[C@H](O)COP(=O)(O)O [F6P, fructose 6-phosphate]
KmF6P (PFKM; partially purified tissue, ATP 1000M, ref Dunaway et al(8) 1988): 2000 µM | KmF6P (PFKM; purified tissue, ATP 500M, ref Meienhofer et al(7) 1980): 1800 µM | KmF6P (PFKM; recombinant (yeast), ATP 5000M, ref Sanchez-Martinez et al(9) 2000): 2000 µM | KmF6P (PFK-M (rat heart)): 145 µM | KmF6P (PFK-P (HeLa cell)): 1100 µM

effect on PFK activity, in words (recombinant human PFK-L; PFK-L): strongly activated | decrease in AC50^F26BP for PFK-L compared with PFK-P (recombinant human PFK-L; PFK-L vs PFK-P): > 50 fold | allosteric constant K0.5^ATP+F26BP/K0.5^ATP (recombinant human PFK-L; PFK-L, ATP titration): 0.92 | AC50 (recombinant human PFK-L; PFK-L, activation, read-out: AC50^F26BP): 0.17 µM | change in kcat^ATP/K0.5^ATP compared with control PFK without modulator (recombinant human PFK-L; PFK-L, modulator 10 µM): +6.5% | change in kcat^F6P/K0.5^F6P compared with control PFK without modulator (recombinant human PFK-L; PFK-L, modulator 10 µM): +148% | K0.5F6P + modulator (recombinant human PFK-L; [1]): 698 (105) M | VmaxF6P + modulator (recombinant human PFK-L; [1]): 5.07 (0.41) moles/min/mg | K0.5ATP + modulator (recombinant human PFK-L; [2]): 139.4 (12.3) M | VmaxATP + modulator (recombinant human PFK-L; [2]): 38.57 (1.23) moles/min/mg
SMILES: O=P(O)(O)OC[C@H]1O[C@@](CO)(OP(=O)(O)O)[C@@H](O)[C@@H]1O [F26BP, fructose 2,6-bisphosphate]
IC50 or AC50 (activator) (PFKM; ref Foe and Kemp, 1985): 0.05 µM | IC50 or AC50 (activator) (PFKM; unit inferred, ref Vora 1985): 10 µM | IC50 or AC50 (activator) (PFKL; ref Foe and Kemp, 1985): 0.05 µM | IC50 or AC50 (activator) (PFKL; ref Van Schaftingen et al 1981): 0.04 µM | IC50 or AC50 (activator) (PFKL; unit inferred, ref Vora 1985): 100 µM | IC50 or AC50 (activator) (PFKP; ref Foe and Kemp, 1985): 4.5 µM | EC50 (PFKP; ref Sanchez-Martinez et al., 2000, read-out: Kact): 2.2 µM | IC50 or AC50 (activator) (PFKP; unit inferred, ref Vora 1985): 100 µM

change in kcat^ATP/K0.5^ATP compared with control PFK without modulator (recombinant human PFK-L; PFK-L, modulator 1100 µM): +1% | change in kcat^F6P/K0.5^F6P compared with control PFK without modulator (recombinant human PFK-L; PFK-L, modulator 1100 µM): +92% | K0.5F6P + modulator (recombinant human PFK-L; [3]): 952.8 (137.7) M | VmaxF6P + modulator (recombinant human PFK-L; [3]): 5.36 (0.49) moles/min/mg | K0.5ATP + modulator (recombinant human PFK-L; [4]): 148.7 (18.6) M | VmaxATP + modulator (recombinant human PFK-L; [4]): 34.91 (1.59) moles/min/mg
SMILES: C=C(OP(=O)(O)O)C(=O)O [PEP, phosphoenolpyruvate]
Ki (PFKP; ref Sanchez-Martinez et al., 2000): 2780 µM

K0.5^GTP (recombinant human PFK-L; [5]): 158 µM and 157.8 (10.8) µM | Vmax^GTP (recombinant human PFK-L; [5]): 25.39 (0.56) µmoles/min.mg | kcat^GTP (recombinant human PFK-L; [5]): 37.0 (0.8) s^−1 | h (GTP) (recombinant human PFK-L; PFK-L, Hill value, GTP titration, F6P 4 mM, n = 3, mean (SD)): 1.18 (0.08)
SMILES: Nc1nc2c(ncn2[C@@H]2O[C@H](COP(=O)(O)OP(=O)(O)OP(=O)(O)O)[C@@H](O)[C@H]2O)c(=O)[nH]1 [GTP]
kcat^GTP/K0.5^GTP (recombinant human PFK-L; [5]): 0.23 s^−1 µM^−1 and 0.23 (0.07) s^−1 µM^−1
